Test [1] deals with thoracic aorta constricted with phenylephrine. The experiment in a line: Vasoconstriction inhibitory action (Test Example 2). Also noted: species or system Rats (Wistar). Particulars: result in words; rat thoracic aorta, phenylephrine. The source says: Rats (Wistar, 11-week old) were bleeded to death and laparotomized to take out the thoracic aorta. That aorta was cut into a ring of a length of about 3 mm in a conventional manner (Asano, T., et al., J. Pharmacol. Exp. Ther., 241, pp. 1033–1040 (1987)) and hung in 10-ml organ bath filled with Krebs-Hensright nutrient solution bubbled with a mixed gas of 95% O2 and 5% CO2. One end of the blood vessel was connected to an isometric transducer (FD Pickup TB-912T, Nihon Kohden) and applied with 2.5 g of resting tension, and constriction and relaxation reactions of the aorta were recorded. The aorta was constricted with phenylephrine (1 μM, Sigma) and then added with a test compound (1 μM), and the vasoconstriction inhibitory action thereof was observed. The vasoconstriction inhibitory actions of the test compounds are shown in Table 6 mentioned below as the relaxation ratios, which are based on the vasoconstriction with phenylephrine immediately before the addition of the test compound taken as 100%.

Another test relates to intraocular pressure. Put plainly: Intraocular pressure reducing action (Test Example 4). The format is in vivo, Japanese white rabbit. Conditions: for inhibition in vivo at 1 %, 50 µL: Oryctolagus cuniculus, topical, 1% aqueous solution, 50 μl dropped to the left eye, after 2 hours, read-out: Intraocular pressure reducing action (reduction ratio) (%); for intraocular pressure reducing activity: result in words, rabbit. As to the method:
A Japanese white rabbit having a body weight of about 2 kg was placed in a positioner and naturalized for one week before the experiment. An ophthalmologic local anesthesant (Benoxil) was administered to the left eye, and then intraocular pressure was measured by using a tonometer (Classic 30, Solan). The initial value of the intraocular pressure was measured, then 50 μl of a test compound (1% aqueous solution) was dropped to the left eye, and after 2 hours, the intraocular pressure was measured. The intraocular pressure reducing action of the test compounds is shown in Table 7 mentioned below as ratios (%) of reduction of intraocular pressure based on the initial value of the intraocular pressure.

SMILES strings stand for the structures. Where a name gives a salt, the structure may show the parent alone.

As for `Cc1cncc2cccc(S(=O)(=O)N(CCCN)CCCc3ccccc3)c12.Cl` [Example 5, N-[(4-Methyl-5-isoquinolyl)sulfonyl]-N-(3-phenylpropyl)-1,3-propylenediamine hydrochloride], the vasoconstriction inhibitory action result in test [1] is recorded as “significant vasoconstriction inhibitory action”.

As for `Cl.NCCCN(CCS(=O)(=O)c1ccccc1)S(=O)(=O)c1cccc2c(O)nccc12` [Example 13, N-[(1-Hydroxy-5-isoquinolyl)sulfonyl]-N-[2-(phenylsulfonyl)ethyl]-1,3-propylenediamine hydrochloride], the vasoconstriction inhibitory action result in test [1] was “significant vasoconstriction inhibitory action”. Turning to `N[C@H]1CC[C@H](Nc2cccc3cnccc23)CC1` [Example 24, Trans-N-(5-isoquinolyl)-1,4-cyclohexanediamine hydrochloride], the inhibition in vivo at 1 %, 50 µL with intraocular pressure turned out to be 35.7%. On to `CSc1cncc2cccc(NC3CCNCC3)c12.Cl` [Example 105, 4-(4-Methylthio-5-isoquinolyl)aminopiperidine hydrochloride], for which, in test [1], the vasoconstriction inhibitory action result is recorded as “significant vasoconstriction inhibitory action”. Also, in the test with intraocular pressure, the inhibition in vivo at 1 %, 50 µL worked out at 18.8%. Regarding `Cl.NC1CCC(Nc2cccc3cncc(Br)c23)CC1` (centres unmarked) [Example 107, N-(4-Bromo-5-isoquinolyl)-1,4-cyclohexanediamine hydrochloride], in the test with intraocular pressure, the “intraocular pressure reducing activity” value is on record as “significant intraocular pressure reducing activity”. In the case of `CCc1cncc2cccc(NC3CCNCC3)c12.Cl` [Example 113, 4-(4-Ethyl-5-isoquinolyl)aminopiperidine hydrochloride], the vasoconstriction inhibitory action entry in test [1] is “significant vasoconstriction inhibitory action”. Moreover, the “intraocular pressure reducing activity” value in the test with intraocular pressure is given as “significant intraocular pressure reducing activity”. In the case of `Cl.Oc1nccc2c(NC3CCNCC3)cccc12` [Example 115, 4-(1-Hydroxy-5-isoquinolyl)aminopiperidine hydrochloride], the “intraocular pressure reducing activity” value in the test with intraocular pressure is given as “significant intraocular pressure reducing activity”.

Regarding `Cl.N#Cc1cncc2cccc(O[C@H]3CC[C@H](N)CC3)c12` [Example 134, Trans-4-[(4-cyano-5-isoquinolyl)oxy]cyclohexylamine hydrochloride], in test [1], the vasoconstriction inhibitory action entry was “significant vasoconstriction inhibitory action”. Moreover, the “intraocular pressure reducing activity” value with intraocular pressure is listed as “significant intraocular pressure reducing activity”. As for `Cl.N[C@H]1CC[C@H](Oc2cccc3cnccc23)CC1` [Example 135, Trans-4-[(5-isoquinolyl)oxy]cyclohexylamine hydrochloride], the “intraocular pressure reducing activity” value with intraocular pressure is reported as “significant intraocular pressure reducing activity”.

In the case of `C=Cc1cncc2cccc(O[C@H]3CC[C@H](N)CC3)c12.Cl` [Example 136, Trans-4-[(4-vinyl-5-isoquinolyl)oxy]cyclohexylamine hydrochloride], the vasoconstriction inhibitory action result in test [1] was “significant vasoconstriction inhibitory action”. In addition, the “intraocular pressure reducing activity” value in the test on intraocular pressure is on record as “significant intraocular pressure reducing activity”. `Cc1cncc2cccc(OC3CCNCC3)c12.Cl` [Example 139, 4-[(4-Methyl-5-isoquinolyl)oxy]piperidine hydrochloride]: the vasoconstriction inhibitory action entry in test [1] is “significant vasoconstriction inhibitory action”. The “intraocular pressure reducing activity” value in the test on intraocular pressure is “significant intraocular pressure reducing activity”. Regarding `Cl.OCCCN1CCC(Nc2cccc3cnccc23)CC1` [Example 145, 1-(3-Hydroxypropyl)-4-(5-isoquinolyl)aminopiperidine hydrochloride], the “intraocular pressure reducing activity” value in the test on intraocular pressure is recorded as “significant intraocular pressure reducing activity”.

The values are drawn from patent publication US7094789B2, “5-substituted isoquinoline derivatives” (Asahi Kasei Pharma Corporation, priority 2002, dated 2006).
